# Measured values reported in PMC6240096, “A hPSC-based platform to discover gene-environment interactions that impact human β-cell and dopamine neuron survival” (Nature Communications, 2018).
# Experiments:
# Type in all cases: cell-based, human
# hESC-derived INS+ cells = assay: Ki67 proliferation staining of hESC-derived INS+ cells; conditions: 1.6 µM propargite vs DMSO
# Experimental: Cells were fixed with 10% (v/v) formalin for 20 min at room temperature (RT) and blocked in a solution of Mg^2+- and Ca^2+-free PBS containing 5% horse serum and 0.3% Triton-X for 1 h at room temperature and followed by incubation with primary antibody at 4 °C overnight. The following primary antibodies and dilutions have been used in this study: goat anti-SOX17 (1:500, R&D system, AF1924), rabbit anti-FOXA2 (1:500, Upstate, 07-633), goat anti-PDX1 (1:500, R&D system, AF2419), mouse anti-NKX6.1 (1:100; BCBC, Ab2024), guinea pig anti-INS (1:1000, Dako, A0564), guinea pig anti-GLUCAGON (1:500, Linco, 4031), mouse anti-Ki67 (1:100, Life technologies, 556003), mouse anti-AMYLASE (1:100, Santa Cruz, sc-46657), rabbit anti-Active Caspase-3 (1:500, BD Bioscience, 559565), mouse anti-Troponin T (1:500, Thermo Scientific, MA5-12960), mouse anti-Actin, Cardiac (1:300, Sigma, A9357), rabbit anti-TUJ1 (1:500, Covance, MRB-435P), Chicken anti-MAP2 (1:1000, Abcam, Ab5392), mouse anti-HuC/D (1:500, Invitrogen, A-21271), mouse anti-MAP2 (1:1500, Sigma, M1406), rabbit anti-TH (1:500, Pel freeze, P40101-0), rat-anti-CTIP2 (1:500, Abcam, ab18465), goat anti-FOXA2 (1:200, R&D, 463783). Donkey anti-guinea pig, mouse, goat, rabbit or chicken secondary antibodies conjugated with Alexa-Fluor-488, Alexa-Fluor-594 or Alexa-Fluor-647 fluorophore (1:500, Life technologies) were used. […]
# INS- cells = assay: High-content survival / inhibitory curve, hESC-derived INS- cells; conditions: H1 hESC-derived, β-cell differentiation protocol 1, 4 days treatment, n = 8
# Experimental: The screening library ToxCast Phase I was obtained from the US Environmental Protection Agency, which contains approximately 2000 compounds dissolved at 20 mM in DMSO. The H1 hESC-derived population was dissociated with Accutase and re-plated onto laminin V-coated 384-well plates at 5000 cells per well. After 16 h incubation, cells were treated with individual compounds from the ToxCast library with four concentrations, including 20 nM, 200 nM, 2 μM, and 20 μM, for each compound. After 4 days, the cells were fixed with 10% formalin and stained with an INS antibody and DAPI, followed by automatic imaging and analysis by ImageXpress^MICRO Automated High-Content Analysis System (Molecular Devices) to count the numbers of INS^+ and INS^− cells. The survival rate was calculated by dividing the numbers of INS^+ cells in compound treated conditions by the average number of INS^+ cells in DMSO-treated conditions. The compounds that induced more than 60% reduction of the survival rate of INS^+ cells and less than 20% of the INS^− cells were chosen as primary hits. […]
# hESCs-derived INS^+ cells, MSCs[43], neurons, and hepatocytes[44] were derived based on the reported protocols and re-plated on 96-well plates with Accutase digestion. […] Plates were analyzed by ImageXpress^MICRO Automated High-Content Analysis System.
# HuC/D+ neurons = assay: Inhibition curve / survival of hESC-derived neurons
# Experimental: (§1) hESCs-derived INS^+ cells, MSCs[43], neurons, and hepatocytes[44] were derived based on the reported protocols and re-plated on 96-well plates with Accutase digestion. Cardiomyocytes (CMs) were differentiated from H9-MYH6: mCherry reporter line, based on the reported protocol. After overnight incubation, cells were treated with DMSO or different doses of hit compounds for 4 days. After fixation, the cells were stained with markers for each cell type. DAPI was used to stain cell nuclei. Plates were analyzed by ImageXpress^MICRO Automated High-Content Analysis System.
# (§2) Supplementary Figure 4. Assessment of the toxic effect of propargite on different type […]
# (§3) (a) Flow cytometry char acterization of CD29+ and CD73+ mesenchymal stem cells (MSCs) derived from H1 hESCs. (b-c) microscope image (b) and flow cytometry (c) characterization of cardiomyocytes expressing MYH6+ derived from a MYH6:mCherry reporter hESC line. (d-e) Immunocytochemistry characterization of MAP2+/TUJ1+ and HuC/D+/MAP2+ neurons (d) and A1AT+/ASGPR1+ hepatocytes (e) derived from H1 hESCs. All the cells were counterstained by DAPI (blue). Scale bars, 100 µm. (f) Inhibition curve of propargite on pancreatic β-like cells, MSCs, cardiomyocytes, neurons, and hepatocytes derived from hESCs, and BJ-fibroblasts (n=3). Values presented as mean±S.D. […]
# CD29+CD73+ MSCs = assay: Inhibition curve on hESC-derived MSCs; conditions: cell survival rate, 4 days, n=3
# Experimental: as §1, §2, §3
# BJ-fibroblasts = assay: Inhibition curve on BJ-fibroblasts; conditions: cell survival rate, 4 days, n=3
# Experimental: as §1, §2, §3
substance,measurement,setting,value
2-(4-tert-butylphenoxy)-cyclohexyl prop-2-yne-1-sulfonate [propargite],percentage of Ki67+/INS+ cells,hESC-derived INS+ cells,did not affect
same,IC50,INS- cells,9.83 µM
same,susceptibility of HuC/D+ neurons,HuC/D+ neurons; 1.6 μM propargite,highly susceptible
same,IC50,"HuC/D+ neurons; cell survival rate, 4 days, n=3",1.46 µM
same,IC50,CD29+CD73+ MSCs,5.85 µM
same,IC50,BJ-fibroblasts,3 µM
